The record followed here is patent US20100099676A1 (SHIONOGI & CO., LTD., priority 2006, published 2010).

Assay in all cases: Enzyme inhibiting activity of MMPs, fluorogenic peptide substrate
Assay type in all cases: biochemical

The target of one assay is T1, MMP-2 (Homo sapiens, UniProt P08253).
T1 construct: purchased Calbiochem (EMD/MERCK Biosciences)
T1 sequence (P08253 110-660): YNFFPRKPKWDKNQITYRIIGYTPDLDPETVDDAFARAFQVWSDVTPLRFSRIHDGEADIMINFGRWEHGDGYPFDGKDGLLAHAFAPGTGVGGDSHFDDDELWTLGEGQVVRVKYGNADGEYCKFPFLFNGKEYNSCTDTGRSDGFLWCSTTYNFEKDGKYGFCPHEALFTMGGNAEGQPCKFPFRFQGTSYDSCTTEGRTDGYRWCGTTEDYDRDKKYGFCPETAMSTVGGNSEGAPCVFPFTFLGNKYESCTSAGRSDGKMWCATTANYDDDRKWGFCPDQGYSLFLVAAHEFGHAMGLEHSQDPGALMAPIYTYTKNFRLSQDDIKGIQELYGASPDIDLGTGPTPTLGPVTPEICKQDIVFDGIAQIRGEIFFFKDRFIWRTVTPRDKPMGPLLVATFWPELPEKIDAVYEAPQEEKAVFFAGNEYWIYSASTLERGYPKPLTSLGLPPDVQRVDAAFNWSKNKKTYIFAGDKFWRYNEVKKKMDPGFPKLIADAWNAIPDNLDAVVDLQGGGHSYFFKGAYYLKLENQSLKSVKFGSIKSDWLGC
Conditions: substrate MOCAc-Pro-Leu-Gly-Leu-A2Pr(DNP)-Ala-Arg-NH2, fluorescent intensity. In outline: (§1)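 Recombinant human enzymes with the fluorogenic substrate MOCAc-Pro-Leu-Gly-Leu-A2Pr(DNP)-Ala-Arg-NH2. Fluorescence was read for enzyme+substrate±inhibitor and substrate±inhibitor blanks.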

The target in another assay is T2, MMP-9 (Homo sapiens, UniProt P14780).
T2 construct: purchased Calbiochem (EMD/MERCK Biosciences)
T2 sequence (P14780 94-707): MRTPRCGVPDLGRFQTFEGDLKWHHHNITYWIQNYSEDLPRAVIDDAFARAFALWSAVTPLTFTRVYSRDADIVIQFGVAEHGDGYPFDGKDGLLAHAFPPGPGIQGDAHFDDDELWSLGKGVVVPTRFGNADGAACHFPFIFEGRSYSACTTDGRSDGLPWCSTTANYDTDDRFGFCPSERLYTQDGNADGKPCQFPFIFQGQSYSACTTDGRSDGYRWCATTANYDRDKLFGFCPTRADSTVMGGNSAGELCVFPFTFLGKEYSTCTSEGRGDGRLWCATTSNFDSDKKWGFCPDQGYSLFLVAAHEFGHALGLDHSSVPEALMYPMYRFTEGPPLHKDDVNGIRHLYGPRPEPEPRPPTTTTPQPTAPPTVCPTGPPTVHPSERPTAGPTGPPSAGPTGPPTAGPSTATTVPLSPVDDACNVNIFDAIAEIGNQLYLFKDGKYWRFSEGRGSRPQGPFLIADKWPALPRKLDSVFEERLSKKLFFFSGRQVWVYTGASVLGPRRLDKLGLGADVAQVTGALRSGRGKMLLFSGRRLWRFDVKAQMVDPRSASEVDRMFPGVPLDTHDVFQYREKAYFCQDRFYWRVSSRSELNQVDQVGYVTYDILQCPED
The following applies: substrate MOCAc-Pro-Leu-Gly-Leu-A2Pr(DNP)-Ala-Arg-NH2, fluorescent intensity. A digest of the protocol: as §1

The next assay deals with T3, MMP-13 (Homo sapiens, UniProt P45452).
T3 construct: purchased Calbiochem (EMD/MERCK Biosciences)
The following applies: APMA-activated proenzyme; substrate MOCAc-Pro-Leu-Gly-Leu-A2Pr(DNP)-Ala-Arg-NH2, fluorescent intensity; read-out: IC50 MMP-13. In outline:
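Pro-MMP-13 was activated with 1 mM APMA at 37° C for 2 h in 50 mM Tris-HCl pH 7.6, 0.3 M NaCl, 10 mM CaCl2, 0.005% Brij35. Activity was read by fluorescence using MOCAc-Pro-Leu-Gly-Leu-A2Pr(DNP)-Ala-Arg-NH2 substrate, with enzyme and inhibitor blank corrections. IC50 is the concentration giving 50% inhibition.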

As to `CC(C)Oc1ccc(C#Cc2ccc(N3CCN(S(=O)(=O)N[C@H](C)C(=O)O)CC3)cc2)cc1C(=O)NCc1cccc(Cl)c1` [III-118, (R)-2-(4-{4-[3-(3-chrolobenzylcarbamoyl)-4-isopropoxyphenylethynyl]-phenyl}-piperazine-1-sulfonylamino)-proponic acid], the IC50 was over 10000 nM on MMP-2, over 10000 nM at MMP-9 and 28 nM at MMP-13.
Regarding `CC(C)[C@@H](NS(=O)(=O)N1CCN(c2ccc(C#Cc3ccnc(C(=O)NCc4ccc(N(C)C)cc4)c3)cc2)CC1)C(=O)O` [III-212, (R)-2-(4-{4-[2-(4-dimethylaminobenzylcarbamoyl)-pyridin-4-ylethynyl]-phenyl}-piperazine-1-sulfonylamino)-3-methylbutanoic acid], the IC50 against MMP-2 is 1000 to 10000 nM; at MMP-9, over 10000 nM; at MMP-13 it was 4 nM.
`CC(C)[C@@H](NS(=O)(=O)N1CCN(c2ccc(C#Cc3ccnc(C(=O)NCc4ccc(F)c(Br)c4)c3)cc2)CC1)C(=O)O` [III-210, (R)-2-(4-{4-[2-(3-bromo4-fluorobenzylcarbamoyl)-pyridin-4-ylethynyl]-phenyl}-piperazine-1-sulfonylamino)-3-methylbutanoic acid]: the IC50 against MMP-2 was over 10000 nM; on MMP-9, over 10000 nM; on MMP-13, 17 nM.

As a reminder, the IC50 is the concentration needed to halve the response being measured.
